We go through one compound from patent US8063231B2, “Methods of treating alpha adrenergic mediated conditions” (Allergan, Inc., priority 2008, dated 2011).

Where “and” joins values, the source holds several entries; their conditions need not be identical. Equal entries are not always repeated.

One data set relates to Chung model rats. As to the kind of experiment: Tactile allodynia reversal in Chung model of chronic pain (spinal nerve ligation, von Frey hairs). The data set is classed as in vivo, rat. The method, then:
Various concentrations of N-(2,3-dichlorobenzyl)-4,5-dihydro-1H-imidazol-2-amine were administered orally to Chung model rats. A model in accordance with Kim and Chung 1992, Pain […], pp 355-363 (Chung model), for chronic pain (in particular peripheral neuropathy) involves the surgical ligation of the L5 (and optionally the L6) spinal nerves on one side in experimental animals. Rats recovering from the surgery gain weight and display a level of general activity similar to that of normal rats. However, these rats develop abnormalities of the foot, wherein the hindpaw is moderately everted and the toes are held together. More importantly, the hindpaw on the side affected by the surgery appears to become sensitive to pain from low-threshold mechanical stimuli, such as that producing a faint sensation of touch in a human, within about 1 week following surgery. This sensitivity to normally non-painful touch is called “tactile allodynia” and lasts for at least two months. The response includes lifting the affected hindpaw to escape from the stimulus, licking the paw and holding it in the air for many seconds. None of these responses is normally seen in the control group.
Rats are anesthetized before surgery. The surgical site is shaved and prepared either with betadine or Novacaine. Incision is made from the thoracic vertebra XIII down toward the sacrum. Muscle tissue is separated from the spinal vertebra (left side) at the L4-S2 levels. The L6 vertebra is located and the transverse process is carefully removed with a small rongeur to expose the L4-L6 spinal nerves. The L5 and L6 spinal nerves are isolated and tightly ligated with 6-0 silk thread. The same procedure is done on the right side as a control, except no ligation of the spinal nerves is performed.
A complete hemostasis is confirmed, then the wounds are sutured. A small amount of antibiotic ointment is applied to the incised area, and the rat is transferred to the recovery plastic cage under a regulated heat-temperature lamp. On the day of the experiment, at least seven days after the surgery, typically six rats per test group are administered the test drugs by intraperitoneal (i.p.) injection or oral gavage. […], the compounds are formulated in d H2O and given in a volume of 1 ml/kg body weight using an 18-gauge, 3 inch gavage needle that is slowly inserted through the esophagus into the stomach.
Tactile allodynia is measured prior to and 30 minutes after drug administration using von Frey hairs that are a series of fine hairs with incremental differences in stiffness. Rats are placed in a plastic cage with a wire mesh bottom and allowed to acclimate for approximately 30 minutes. The von Frey hairs are applied perpendicularly through the mesh to the mid-plantar region of the rats' hindpaw with sufficient force to cause slight buckling and held for 6-8 seconds. The applied force has been calculated to range from 0.41 to 15.1 grams. If the paw is sharply withdrawn, it is considered a positive response. A normal animal will not respond to stimuli in this range, but a surgically ligated paw will be withdrawn in response to a 1-2 gram hair. The 50% paw withdrawal threshold is determined using the method of Dixon, W. J., Ann. Rev. Pharmacol. Toxicol. 20:441-462 (1980) hereby incorporated by reference. The post-drug threshold is compared to the pre-drug threshold and the percent reversal of tactile sensitivity is calculated based on a normal threshold of 15.1 grams.

Another data set relates to wild type rats. Put plainly: Sedative effects (total activity counts) after intraperitoneal injection. The data set is classed as in vivo, rat. The note with it: for Sedative Effect (IP): 30 minutes post injection. The procedure:
FIG. 2 depicts sedative effects (total activity counts) 30 minutes post intraperitoneal injection of 1 mg/kg and 10 mg/kg doses of N-(2,3-dichlorobenzyl)-4,5-dihydro-1H-imidazol-2-amine.
Data was acquired from wild type rats administered N-(2,3-dichlorobenzyl)-4,5-dihydro-1H-imidazol-2-amine intraperitoneally (IP). Rats were split into groups of six and administered 1 mg/kg or 10 mg/kg doses of N-(2,3-dichlorobenzyl)-4,5-dihydro-1H-imidazol-2-amine to assess the sedative effects of the administration of the agent.

Consider `Clc1cccc(CNC2=NCCN2)c1Cl` [N-(2,3-dichlorobenzyl)-4,5-dihydro-1H-imidazol-2-amine], for which the “Peak Allodynia Reversal (Oral, 30 min.)” value with Chung model rats (30 μg/kg oral) is 28% and 28% +/− 9.5%; in the data set with Chung model rats (100 μg/kg oral), 68% +/− 12.7%; in the data set with Chung model rats (300 μg/kg oral), 84% +/− 7.5%. For the same compound, the “Time at which analgesic effect was seen (peak percent allodynia reversal)” value in the data set on Chung model rats (single oral dose, FIG. 1) is on record as “about 30 minutes”. Moreover, the “Time of decrease of allodynia reversal to baseline” value with Chung model rats (single oral dose, FIG. 1) is “about 120 minutes”. For the same compound, the results for the “Sedative Effect (IP)” value in the data set with wild type rats (1 mg/kg IP) and in the data set on wild type rats (10 mg/kg IP) were “No significant effect” and 23% sedating, respectively. In addition, the “Sedative effect (in words)” value with wild type rats (10 mg/kg IP) is “significant sedative effect”.
